Measurements from patent US20180207249A1, “METHOD AND VACCINE COMPRISING COPOLYMER 1 FOR TREATMENT OF PSYCHIATRIC DISORDERS” (YEDA RESEARCH AND DEVELOPMENT CO. LTD., priority 2003, published 2018).

How the values were obtained:
[1] = system: Treg (CD4+CD25+) co-cultured with effector T cells (Teff); assay: Inhibition assay (co-culturing of Teff with Treg), [3H]-thymidine incorporation; type: cell-based, mice; conditions: activated Treg incubated 2 h with Cop-1 20 μg/ml, Cop-1 20 μg/ml also added to co-culture
Procedure: (xviii) Purification of CB4^+CB25^+ and CD4^+CB25^− T cells. Lymph nodes were harvested and mashed. T cells were enriched by negative selection and purified on CD3-cell columns (MTCC-25; R&D Systems). The enriched T cells were incubated with and-CD8 raicrobeads (Miltenyi Biotec, Bergiseh Gladbach, Germany), and negatively selected CD4^+ T cells were incubated with PE-conjugated anti-CD25 (30 μg/10^8 cells) in PBS/2% fetal calf serum. They were then washed and incubated with anti-PE microbeads (Miltenyi Biotec) and subjected to magnetic separation with AutoMACS (Miltenyi Biotec). The retained cells were eluted from the column as purified CD4^+CD25^+ cells. The negative fraction consisted of CD4^+CD25^− T cells. Cell purity was chceked by FACSort (Becton-Dickinson) and typically ranged from 88% to 95%. Purified cells were cultured in 24-well plates (1 ml).
(xix) Activation of CB4^+CD25^+ regulatory T cells. […]
(xx) Inhibition assay (co-culturing of Teff with Treg). […] After the cells were harvested, their analyzed [^3H]-thymidine content was analyzed by the use of a […].
Naïve Teff cells (50×10^3 cells/well) were co-cultured with decreasing numbers ([…] cells/well) of Treg cells that have been activated for 24 h with anti-CD3 and mrIL 2. […] Recorded values are from one representative experiment out of three and are expressed as means±SD of 4 replicates.

[2] = system: rats exposed to psychotomimetic drugs; assay: Vaccination after exposure to psychotomimetic drugs; type: in vivo; conditions: vaccination after drug exposure, not shown
[3] = system: male C57B1/6J mice exposed to the odor of a predator; assay: Behavioral adaptation to psychological stress (predator odor; EPM and ASR cut-off behavioral criteria); type: in vivo, mouse; conditions: single 10-min exposure to odor of a predator, PBS/CFA control 40.8%, P<0.05
Procedure: (iii) Immunization. Each animal was injected with a total of 100 μg of Cop-1 emulsified in an equal volume of complete Freund's adjuvant (CPA) containing 5 mg/ml of Mycobacteria H37 RA (Difco). The emulsion, in a total volume of 0.1 mL, was injected into the flank 1 week before the mouse was first injected with a psychotomimetic drug. Control mice were injected with an equal volume of phosphate-buffered saline (PBS) emulsified in CFA.
(ix) Induction of psychological stress. Mice in the experimental groups were exposed for 10 minutes to thoroughly soiled eat litter (used by a cat for 2 days and sifted for faeces). Control (WT) mice were exposed for the same time to unused litter. […]
Behavior on the EPM was recorded using EthoVision programs (Noldus) that recorded the location of the mouse over the 5-minute test period. […]
Five behavioral parameters were assessed: (1) time spent in the open arms; (2) time spent in the closed arms; (3) number of entries into open arms; (4) number of entries into closed arms; (5) total number of entries into all arms. Mice were recorded as having entered an open or closed arm only when all four paws had passed over the dividing line between open and closed arms. […]
(xi) Acoustic startle response (ASR). […] The ASR and pre-pulse inhibition were measured using two ventilated startle chambers (SR-LAB system, San Diego Instruments, San Diego, Calif.). […]

Substance: Copolymer 1 [Cop-1]
- Treg-mediated suppression of Teff proliferation [1]: alleviated the suppression of Teff compared to the control
- Effect of vaccination given after psychotomimetic drugs [2]: beneficial
- Prevalence of maladaptation (behavioral changes) after predator odor [3]: 14.8%
